Laboratory results taken from patent publication US20060018827A1, “Positron therapy of inflammation, infection and disease” (priority 2004, published 2006).
Read-outs that look alike come from different tables or passages of the source.

Experiments:
BALB/c mice = assay: Radiotoxicity studies of ^18F-FDG in healthy mice; assay type: in vivo, mouse; settings: doses of up to 5 mCi i.p., 1 month
Protocol: Radiotoxicity studies of ^18F-FDG in healthy mice. After a 4-hour fast, […] of BALB/c mice were treated i.p. with the following doses of ^18F-FDG: group 1 (three mice), 2.5 mCi; group 2 (three mice), 5 mCi; group 3 (three mice), left untreated for control. The mice were monitored for changes in behavior and body weight for 1 month, after which they were killed. Their heart, brain, liver, kidneys, bladder, and bone marrow were removed, fixed in buffered formalin, sectioned, stained with hematoxylin and eosin (H&E), and analyzed histologically.

[1] = system: mammary tumors in PyMT mice; assay: Treatment of PyMT mice with ^18F-FDG (toleration, apoptosis and necrosis detection); assay type: in vivo, mouse
Protocol: Animals. All procedures involving mice were conducted in accordance with the National Institutes of Health regulations concerning the use and care of experimental animals. The study of mice was approved by the Albert Einstein College of Medicine (AECOM) Animal Use Committee. Transgenic mice expressing the polyoma middle T antigen (PyMT) in the mammary epithelium under the control of mouse mammary tumor virus (MMTV) long terminal repeat were provided by Dr. W. J. Muller (McMaster University, Ontario, Canada) and then bred at AECOM. At the age of 10 weeks these mice have multiple mammary tumors 0.15-0.17 cm in diameter. In mice older than 18 weeks the tumors are more than 1 cm in diameter. MMTV-NeuT mice (Muller et al. 1988), which carry erbB-2 (Neu), one of the better known human breast cancer oncogenes, were purchased from Jackson Laboratories. MMTV-NeuT mice were obtained as retired breeders and some of them developed mammary tumors at the age of 5 months, whereas others remained-tumor free until 6-7 months of age. C3H/B6 female mice lacking the PyMT transgene were used as healthy controls in therapy experiments. Notch tumor-bearing mice were produced by subcutaneously injecting six to eight week old female nude mice with […] Notch cells on their right flank. One week after implantation the tumors reached 0.5-0.7 cm in diameter and therapy with FDG was initiated.
Treatment of PyMT mice with ^18F-FDG. After a 4-hour fast, three groups of mice were treated i.p. with the following doses of ^18F-FDG: group 1 (five 10-week-old mice), 2-4 mCi; group 2 (three 22-week-old mice), 2 mCi; group 3 (two C3H/B6 mice), 3 mCi to assess radiation damage to healthy breast tissue. Three 10-week-old and two 22-week-old PyMT mice served as untreated controls. At 10 days after treatment, mice were killed. In younger mice, the right abdominal mammary glands were removed for whole mount preparation as described (Gouon-Evans et al., 2000), then fixed in buffered formalin and sectioned. In older mice, the tumors were removed and processed as above. Some sections were stained with H&E; others were analyzed for the presence of apoptotic and necrotic cells.
Apoptosis and necrosis detection. The detection of apoptotic and necrotic cells in the tumors was performed with an Apoptag® Plus apoptosis detection kit (Serologicals) in accordance with the manufacturer's instructions. In brief, 3′-OH termini of DNA fragments, which are the hallmark of apoptosis, were labeled with digoxigenin-modified nucleotides by terminal deoxynucleotidyl transferase. This enzyme selectively detects apoptotic over necrotic cells. The labeled DNA was detected with an anti-digoxigenin antibody, and detection was performed with a chromagen: apoptotic cells were stained brown, and areas of necrosis were stained yellow.

[2] = Human Maximum Tolerated Dose (MTD) of ^18F-FDG, organ dosimetry calculation; settings: for 5 Ci FDG Organ dose / 7.5 Ci FDG Organ dose / MTD FDG (calculated MTD of ^18F-FDG for the organ): 70 Kg person
Protocol: The dose-limiting organ for therapy with ^18F-FDG is the bone marrow. The activity of ^18F-FDG that will deliver doses of 200 rad to the red marrow (less than 5% damage in 5 years) (Early and Sodee, 1995) and also 300 rad were calculated using the Medical Internal Radionuclide Dosimetry formalism. A dose of 300 rad was considered because it causes acceptable and manageable hematologic toxicity in selected patients (Early and Sodee, 1995). The subsequent doses delivered to ^18F-FDG-avid tumors were calculated.
Human Maximum Tolerated Dose (MTD) of ^18F-FDG. Table 1 indicates the radiation dose (Column 2) to each organ (Column 1) from 1mCi of ^18F-FDG for a 70 Kg person. The tolerated radiation dose of each organ (5% complications in 5 years) is described in Table 1, Column 3. The MTD of ^18F-FDG for each organ is described in Table 1, Column 4. The smallest value in this column is 4.88 Ci, which is the MTD of ^18F-FDG for a 70 Kg person, delivering 200 cGy to the ovaries. This is the critical organ for female patients; however, female patients with metastatic cancer have usually undergone chemotherapy causing ovarian failure or may choose to accept ovarian failure as a side effect of therapy. If ovarian function is not a consideration, then the critical organ is the bone marrow for both male and female patients. A dose of 5.00 Ci of ^18F-FDG would deliver 200 cGy to the bone marrow of a 70 Kg person.

[3] = 70 Kg person, cited from earlier work

O=C[C@H]([18F])[C@@H](O)[C@H](O)[C@H](O)CO [^18F-FDG, ^18F-2-deoxy-2-fluoro-D-glucose]
damage in major organs including bone marrow (histological examination) (BALB/c mice): no damage in major organs
apoptotic cells in treated small tumors ([1]; 10-week-old PyMT mice, tumors 0.15-0.17 cm, 2-4 mCi i.p., 10 days after treatment): 4±1%
necrotic areas, share of tumor volume ([1]; 22-week-old PyMT mice, tumors more than 1 cm, 2 mCi i.p., 10 days after treatment): 14%
apoptosis or necrosis in healthy mammary glands ([1]; C3H/B6 mice, 3 mCi i.p.): No apoptosis or necrosis was detected
changes in eating and drinking habits, urine and fecal excretion, or body weight ([1]; PyMT mice, 2-4 mCi i.p., observed for 10 days): No changes
radioactivity detected in mice ([1]; PyMT mice, 24 hours after injection): no radioactivity was detected
5 Ci FDG Organ dose ([2]; Bone marrow): 200 cGy
7.5 Ci FDG Organ dose ([2]; Bone marrow): 300 cGy
5 Ci FDG Organ dose ([2]; Brain): 850 cGy
7.5 Ci FDG Organ dose ([2]; Brain): 1275 cGy
MTD FDG (calculated MTD of ^18F-FDG for the organ) ([2]; Brain, organ MTD 4500 cGy (5% complications in 5 years)): 26.47 Ci
5 Ci FDG Organ dose ([2]; Heart wall): 1250 cGy
7.5 Ci FDG Organ dose ([2]; Heart wall): 1875 cGy
MTD FDG (calculated MTD of ^18F-FDG for the organ) ([2]; Heart wall, organ MTD 4000 cGy (5% complications in 5 years)): 16.00 Ci
5 Ci FDG Organ dose ([2]; Kidneys): 390 cGy
7.5 Ci FDG Organ dose ([2]; Kidneys): 585 cGy
MTD FDG (calculated MTD of ^18F-FDG for the organ) ([2]; Kidneys, organ MTD 2300 cGy (5% complications in 5 years)): 29.49 Ci
5 Ci FDG Organ dose ([2]; Liver): 440 cGy
7.5 Ci FDG Organ dose ([2]; Liver): 660 cGy
MTD FDG (calculated MTD of ^18F-FDG for the organ) ([2]; Liver, organ MTD 3000 cGy (5% complications in 5 years)): 34.09 Ci
5 Ci FDG Organ dose ([2]; Lungs): 280 cGy
7.5 Ci FDG Organ dose ([2]; Lungs): 420 cGy
MTD FDG (calculated MTD of ^18F-FDG for the organ) ([2]; Lungs, organ MTD 6500 cGy (5% complications in 5 years)): 116.07 Ci
5 Ci FDG Organ dose ([2]; Ovaries): 205 cGy
7.5 Ci FDG Organ dose ([2]; Ovaries): 308 cGy
MTD FDG (calculated MTD of ^18F-FDG for the organ) ([2]; Ovaries, organ MTD 200 cGy (5% complications in 5 years)): 4.88 Ci
5 Ci FDG Organ dose ([2]; Testes): 205 cGy
7.5 Ci FDG Organ dose ([2]; Testes): 308 cGy
MTD FDG (calculated MTD of ^18F-FDG for the organ) ([2]; Testes, organ MTD 500 cGy (5% complications in 5 years)): 12.20 Ci
5 Ci FDG Organ dose ([2]; Urinary bladder): 1350 cGy
7.5 Ci FDG Organ dose ([2]; Urinary bladder): 2025 cGy
MTD FDG (calculated MTD of ^18F-FDG for the organ) ([2]; Urinary bladder, organ MTD 6500 cGy (5% complications in 5 years)): 24.07 Ci
dose to the brain ([2]; administered dose of 7.50 Ci): 1275 rad
Radiation dose to organ from 1 mCi ^18F-FDG ([3]; Bone marrow): 0.04 cGy/mCi
Radiation dose to organ from 1 mCi ^18F-FDG ([3]; Brain): 0.17 cGy/mCi
Radiation dose to organ from 1 mCi ^18F-FDG ([3]; Heart wall): 0.25 cGy/mCi
Radiation dose to organ from 1 mCi ^18F-FDG ([3]; Kidneys): 0.078 cGy/mCi
Radiation dose to organ from 1 mCi ^18F-FDG ([3]; Liver): 0.088 cGy/mCi
Radiation dose to organ from 1 mCi ^18F-FDG ([3]; Lungs): 0.056 cGy/mCi
Radiation dose to organ from 1 mCi ^18F-FDG ([3]; Ovaries): 0.041 cGy/mCi
Radiation dose to organ from 1 mCi ^18F-FDG ([3]; Testes): 0.041 cGy/mCi
Radiation dose to organ from 1 mCi ^18F-FDG ([3]; Urinary bladder): 0.27 cGy/mCi
